Measurements from patent US8435556B2, “Transdermal delivery of cannabidiol” (Alltranz, LLC, priority 2005, dated 2013).
Where “and” joins values, the source holds several entries; their conditions need not be identical. Identical values can stand only once.

Key:
[1] = plasma THC and CBD concentrations after separate and co-administration
[2] = human skin permeation of cannabidiol with permeation enhancers; format: in vitro ADME; settings: enhancer 6% v/v
From the text: The aim of the experiment was to evaluate the effect of permeation enhancers on human skin permeation of cannabidiol (CBD). The following permeation enhancers were used in the study: • LAUROGLYCOL 90-(Propylene glycol monolaurate 90%)-LG-90 • TRANSCUTOL HP (Purified diethylene glycol monoethyl ether)-TC-HP • LABRAFIL® M 1944 CS (Oleoyl Macrogolglycerides)-LF • LABRASOL® (Caprylocaproyl Macrogolglycerides)-LB • SUPER REFINED® NOVOL NF (Oleyl Alcohol)-OA
A high-pressure liquid chromatography (HPLC) assay was used for the analysis of CBD in the samples. The HPLC system consisted of a Waters 717 plus Autosampler, Waters 1525 Binary HPLC Pump and Waters 2487 Dual λ Absorbance Detector with Waters Breeze software. A Brownlee C-18 reversed-phase Spheri-5 μm column (220×4.6 mm) with a C-18 reversed phase 7 μm guard column (15×3.2 mm) was used with the UV detector set at a wavelength of 215 nm. The mobile phase was comprised of acetonitrile: 25 mM phosphate buffer with 0.1% triethylamine pH 3.0 (80:20). The flow rate of the mobile phase was […] and 100 μL of the sample was injected onto the column.
Human skin harvested during abdominoplasty was used for the diffusion studies. Skin sections were obtained by using a Padgett Instruments® dermatome set to 250 microns and stored at −20° C. […] Trans-epidermal water loss was measured (Evaporimeter EP1™, ServoMed, Sweden) after securing the skin in the cells. Pieces of skin with readings below 10 g/m^2/h were used for the diffusion studies. […] An excess quantity of CBD was added to the donor vehicle (propylene glycol:Hanks' buffer (80:20)) solution with and without permeation enhancers at 6% v/v, sonicated for 10 min, and then applied onto the skin. Excess quantity of the drug was used in the donor compartment throughout the diffusion experiment in order to maintain maximum and constant chemical potential of the drug in the donor vehicle. […]
Drug disposition in the skin samples was measured at the completion of the 48 h experiment. […] Samples were analyzed by HPLC to determine CBD content in […] (pmol) of drug per gram of wet tissue weight. […]

[3] = skin permeation study of WIN 55,212-2 in flow-through diffusion cells; format: in vitro ADME, human
Description: The skin permeation study was carried out using skin excised during abdominal reduction surgery. The skin sample was harvested from the abdomen using a Padgett dermatome set to 250 μm; the skin sample was frozen at −20° C. for one week. The frozen skin sample was thawed and used at the 250 μm split-thickness for the diffusion study. Three PermeGear In-Line Flow Cells were used for the skin permeation study. The receiver fluid was 6% BRIJ® 98 (Polyoxyethylene 20 Oleyl Ether), in order to increase the partitioning of this extremely lipophilic drug into the receiver. The receiver fluid was pumped through the diffusion cells at a rate of one milliliter per hour. The receiver samples were refrigerated until HPLC analysis. The temperature of the diffusion cells was maintained at 32° C. with a circulating water bath. The diffusion experiment was initiated by charging the donor compartment with 0.25 mL of WIN 55,212-2 Mesylate in propylene glycol (50 mg/mL).
Samples were analyzed using a HPLC system which consisted of a Waters 717 Autosampler, 501 Pumps, and a 484 Tunable UV Absorbance Detector with Millennium Chromatography Software. A reversed phase Beckman 5 μm particle 4.6 mm×25 cm C-18 column was used with the UV detector set at a wavelength of 215 nm. The mobile phase consisted of 0.05 M monobasic potassium phosphate:acetonitrile (300 mL:700 mL) at a flow rate of 2 mL/min.
Skin permeation data were plotted as the cumulative amount of drug collected in the receiver compartment as a function of time. The lag times and steady-state fluxes were calculated using the terminal, linear portions of these curves. The slopes (Js) through these curves were determined using linear regression analysis. In all cases, the coefficients of determination for the lines were >0.99.
Lag times were determined by extrapolating the steady-state curves to the X-axis. The permeability coefficient was calculated from Fick's law of diffusion: […]

[4] = full-thickness human skin, Touitou et al. 1988; cited from earlier work
[5] = in vitro permeation of Δ^9-tetrahydrocannabinol across human skin with various receiver solutions

Q: Which “cannabidiol plasma concentration, coadministered with THC vs alone” value ([1]; FIG. 12) does the source give for `C=C(C)C1CCC(C)=CC1c1c(O)cc(CCCCC)cc1O` (centres unmarked) [CBD, 2-[3-methyl-6-(1-methylethenyl)-2-cyclohexen-1-yl]-5-pentyl-1,3-benzenediol] here?
A: higher both initially and over time when coadministered

Q: And the “Cumulative amount permeated at 48 h” value ([2]; 48 h)?
A: 193.21 ± 22.77 nmol and 338.11 ± 73.09 nmol

Q: And the “Lag Time” value ([2]; donor propylene glycol:Hanks' buffer (80:20))?
A: 14.19 ± 1.59 h and 9.43 ± 2.47 h

Q: And the Flux ([2]; steady state, donor propylene glycol:Hanks' buffer (80:20) with excess CBD, receiver with 40% PEG 400, 32° C.)?
A: 9.16 ± 1.41 nmol/cm^2/h

Q: Which diffusion lag time ([3]; 250 μm split-thickness skin, donor 50 mg/mL in propylene glycol, receiver 6% BRIJ 98, 32° C., 48 h) does the source give for `Cc1c(C(=O)c2cccc3ccccc23)c2cccc3c2n1[C@H](CN1CCOCC1)CO3` [WIN 55,212-2, (R)-(+)-[2,3-dihydro-5-methyl-3-(4-morpholinylmethyl)-pyrrolo[1,2,3-de]-1,4-benzoxazin-6-yl]-1-naphthalenyl-methanone] here?
A: 24 h

Q: And the “drug depletion from the donor compartment” value ([3]; 48 h, donor not saturated)?
A: < 1%

Q: What about the mean flux ([3]; steady state, donor 50 mg/mL in propylene glycol, receiver 6% BRIJ 98, n=3) of the same compound?
A: 2.6 μg/cm^2/h

Q: With `CCCCCc1cc(O)c2c(c1)OC(C)(C)[C@@H]1CC=C(C)C[C@@H]21` [Δ^8-THC, Δ^8-tetrahydrocannabinol] as the compound, how does the flux rate [4] read?
A: 3.5 μg/cm^2/hr

Q: And the permeability coefficient [4]?
A: 0.036 ×10⁻⁶ cm/s

Q: Which “permeability difference of tape stripped skin relative to intact skin” value ([5]; 6% BRIJ 98 receiver solution) does the source give for `CCCCCc1cc(O)c2c(c1)OC(C)(C)[C@@H]1CCC(C)=C[C@@H]21` [Δ^9-tetrahydrocannabinol] here?
A: six fold

Q: And the “permeability enhancement with 6% BSA relative to 4% BSA” value ([5]; four subjects, except subject 3)?
A: 20-50%

Q: And the mean lag time ([5]; intact skin)?
A: 18.0 ± 3.4 h

Q: And the “permeability in presence of BRIJ 98 solution relative to BSA solution” value ([5]; receiver BRIJ 98 (6%) vs BSA (4%), five subjects, except subject 4)?
A: 2-5 fold

Q: And the mean lag time ([5]; stripped skin)?
A: 7.8 ± 3.9 h

Q: And the “permeability with 6% BRIJ 98 vs 0.5% BRIJ 98 receiver solution” value ([5]; three subjects, differences not statistically significant)?
A: similar

Q: What about the “permeability of tape stripped skin relative to intact skin” value ([5]; various receiver solutions) of the same compound?
A: 2-3 times

Q: And the “THC plasma concentration, coadministered with cannabidiol vs alone” value ([1]; FIG. 11)?
A: higher both initially and over time when coadministered
